Here are results for nine compounds from patent US20240374655A1, “INTESTINAL MICROBIOTA AND GVHD” (Memorial Sloan-Kettering Cancer Center, priority 2014, published 2024).

“Also recorded” adds a separate entry of the source.

In one data set the test system is murine Blautia. Kind of data set: In vitro suppression of Blautia by L. johnsonii / Lacto-conditioned media and rescue by reducing agents. Type of data set: cell-based. As to conditions: reducing agent added in the presence of Lacto-conditioned media. As to the method:
A) Murine Blautia was grown in peptone yeast glucose broth either alone, or with murine L. johnsonii in conditions of limited media or ample media, and viable colonies were quantified. B) L. johnsonii was allowed to grow in media to plateau phase, then sterile filtered to generate Lacto-conditioned media. Effects of Lacto-conditioned media on the viability of L. johnsonii and murine Blautia were evaluated when mixed with fresh media in a 1:1 ratio. Effects of the addition of 3 reducing agents indicated was also evaluated.
From studying the effects of calorie restriction on intestinal microbiota composition it was observed that obligate anaerobes (Clostridia, Bacteroidetes) are reduced in abundance while facultative anaerobes (Lactobacillos, Proteobacteria) expand. Production of free radicals by E. coli in the setting of starvation has been described previously (Saby S, et al. Appl Environ Microbiol. 1999; 5600-5603). Experiments were designed to examine in vitro if Lactobacillus johnsonii could suppress the growth of our murine Blautia isolate under starvation conditions, and to further investigate if production of free radicals could be a contributing factor. […] The effects of media that had supported the growth of L. johnsonii to plateau phase were further investigated following sterile filtration. […] It was then examined if reducing agents could rescue Blautia from Lacto-conditioned-media-mediated suppression.

A short description of data set [1]: Sugars in drinking water to augment Blautia and mitigate experimental GVHD. The data set is classed as in vivo, C57BL/6 mice. As to conditions: for GVHD severity / survival of mice with GVHD: 10 g/L in drinking water beginning one week before BMT. As to the method:
Left: Intestinal abundance of Blautia was evaluated on day 14 after BMT, results of a single experiment. Right: Mice were followed for development of clinical GVHD (combined results of 2 experiments).
Mice were followed for development of clinical GVHD (combined results of 3 experiments).
C57BL/6 mice were inoculated orally with a murine Blautia isolate known to ferment xylose. Some mice were then administered xylose in the drinking water (10 g/L) beginning 7 days prior to BMT with B10.BR BM and T cells.

Data set [2] deals with 17 strains from a clostridial mix. Kind of data set: Growth of strains from a clostridial mix in BHI media without glucose with added sugars. Type of data set: cell-based, Clostridia. As to conditions: BHI media without glucose plus sugar. From the text:
Glucose gave the best results and was able to support the growth of 10 of the total 17 strains. Glucose, however would have limited benefit since it likely doesn't give a selective advantage to the beneficial bacteria. Raffinose was able to support 5 strains, while cellobiose appeared to support 4 strains not supported by raffinose. In one embodiment, therefore, a mixture of raffinose and cellobiose can be administered to a subject to provide support for at least a portion of the beneficial bacteria.

For data set [3], the system named is Blautia isolate of C57BL/6 origin. Kind of data set: Sugar fermentation by bacterial isolate (pH and optical density in media lacking glucose). The data set is classed as cell-based. Here is the method: (§1) Utilizing Blautia isolate of C57BL/6 origin, as well as a Lactobacillus johnsonii of C57BL/6 origin, the ability of these bacteria to ferment a variety of sugars was evaluated using pH and optical density to evaluate bacterial growth in media lacking glucose. Lactobacillus johnsonii was evaluated because this bacteria expands in the setting of calorie restriction at the expense of Clostridia, and is thus presumably a direct competitor for nutrients in the murine intestine.

Data set [4] has as its system Lactobacillus johnsonii of C57BL/6 origin. Described as above. The data set is classed as cell-based. As to the method:
as §1

Data set [5] deals with intestinal microbiota (Clostridiales, Enterococcus). Kind of data set: Flora composition (16S rRNA sequencing of stool) after antibiotic treatment of healthy mice. Type of data set: in vivo, C57BL/6 mice. As to conditions: 100 mg/kg SC twice a day for two days. As to the method:
(§2) FIGS. 16A-16J Imipenem treatment, compared to aztreonam treatment, suppresses anaerobic commensals and elevates GVHD severity in mice. (A) Flora composition analysis using 16S rRNA sequencing prior to and after treatment with the indicated antibiotics in healthy C57BL/6 mice. Mice were treated with subcutaneous (SC) injections of each antibiotic twice a day for two days (500 mg/kg for pip/tazo and 100 mg/kg for others) and stool samples were collected the following day. Values represent mean±SEM (n=3-4). *, P<0.05; **, P<0.01; ****, P<0.0001. Data are representative of two independent experiments. (B to J) Lethally irradiated 129S1 recipients were transplanted with MHC matched C57BL/6 T-cell depleted bone marrow (TCD-BM) cells and 1×10^6 C57BL/6 T cells. Control mice received TCD-BM only. Recipients were treated with imipenem or aztreonam (100 mg/kg, SC, 3 times a week from day 10 to day 24 following allo-HSCT). (B) Comparison of overall survival, with combined data from three independent experiments (n=15-43). ****, P<0.0001. (C) Mice with GVHD treated with antibiotics were sacrificed on day 21 and GVHD histology scores in target organs were quantified by a blinded pathologist. Data are combined from three independent experiments (n=5-20). *, P<0.05. (D) Stool samples obtained from mice treated with imipenem or aztreonam similarly to those in B were collected on day 21 and analyzed by 16S rRNA gene sequencing, followed by principal coordinate analysis of weighted and normalized UniFrac distances. (E and F) Differential taxonomic abundance between aztreonam treated and imipenem treated recipients was analyzed by (E) linear discriminate analysis coupled with effect size measurements (LEfSe) and (F) by LEfSe projected as a cladogram. Data are representative from more than five independent experiments in D to F. (G and H) Comparisons of bacterial abundance at the phylogenetic levels of (G) order, and (H) genus are shown. Data are combined from 6 independent experiments (n=32-36). ***, P<0.001. (I) Stool samples collected from mice with GVHD treated with antibiotics were collected on day 21, and evaluated by metagenomic shotgun sequence analysis, comparison of bacterial species abundance determined by taxonomy. Numbers 1 through 6 along the x-axis represent the individual subjects. (J) Principal component analysis of quantification of sequence reads from KEGG gene orthologs comparing samples from mice treated with aztreonam and imipenem.
To further explore causality and mechanisms of the effects of antibiotics with anaerobic activity on GVHD, we turned to experiments in mice. […] Mice were treated by subcutaneous (SC) injections of each antibiotic twice a day for two days (500 mg/kg for pip/tazo and 100 mg/kg for others) and stool samples were collected, followed by 16S rRNA gene amplification and sequence analysis.

In the next data set the test system is Clostridiales. Kind of data set: Change in Clostridiales abundance in paired stool samples of allo-HSCT patients before and after starting antibiotics. The data set is classed as in vivo, human. As to conditions: before vs after starting the antibiotic; compared to aztreonam. From the text:
(A) A retrospective cohort was identified of 283 adult patients who received non-T cell depleted allo-HSCT at our center from 1994 to 2013 and received antibiotics for neutropenic fever. Patients were stratified by exposure to antibiotics with significant activity against anaerobes. Outcomes indicated were depicted by Kaplan-Meier plots and curves compared by the logrank test. (B to G) Six representative clinical cases with time courses depicted of fecal microbiota composition and administration of antibiotic treatments during the course of allo-HSCT. […] (H) Change in abundance of Clostridiales in paired fecal samples from patients undergoing allo-HSCT collected prior to and following treatment with the indicated antibiotics.
For each stool specimen, DNA was purified using a phenol-chloroform extraction technique with mechanical disruption (bead-beating) based on a previously described protocol (60). Samples were analyzed using the 454 GS FLX Titanium platform to sequence the V1-V3 region of the bacterial 16S rRNA gene or were alternatively analyzed using the Illumina MiSeq platform to sequence the V4-V5 region of the 16S rRNA gene. Sequence data were compiled and processed using mothur version 1.34 (61), screened and filtered for quality (62). Operational taxonomic units (OTUs) were classified to the species level (63) using a modified form of the Greengenes reference database (64). Principal component analysis was performed upon a weighted and normalized Unifrac (65) distance matrix of OTU abundance in R software. Data from this study has been stored in the NCBI Sequence Read Archive (see url: www.ncbi.nlm.nih.gov/sra).
HSCT patients were on intestinal bacterial composition. In 2009, our center began to prospectively collect weekly stool samples from patients undergoing allo-HSCT. From this specimen bank, we identified paired stool samples collected from patients prior to as well as following initiation of specific antibiotics during the course of allo-HSCT. […]

The nature of data set [6]: Antibiotic treatment in MHC-matched minor antigen-mismatched allo-HSCT GVHD model (C57BL/6 into 129S1). As to conditions: mouse, in vivo. Type of data set: in vivo. As to the method:
as §2, with “Data are representative from more than five independent experiments in D to F. (G and H) Comparisons of bacterial abundance at the phylogenetic levels of (G) order, and (H) genus are shown. Data are combined from 6 independent experiments (n=32-36). ***, P<0.001.” left out, “Numbers 1 through 6 along the x-axis represent the individual subjects.” left out
(A to G) Lethally irradiated 129S1 recipients were transplanted with C57BL/6 TCD-BM cells with 1×10^6 C57BL/6 T cells. […] (A) Colonic lamina propria-infiltrating leukocytes from recipients were analyzed on day 21 by flow cytometry. […] (C) Lamina propria-infiltrating leukocytes from the colon on day 21 were enriched for CD11b and CD11e simultaneously using a mixture of magnetic beads and IL-23 transcripts were quantified by real time PCR. […] (D) Immunofluorescent staining was used to quantify pSTAT3, CD3, and DAPI positive cells in colonic tissue collected on day 21. […]

Regarding `O=C([O-])CS.[Na+]` [sodium thioglycolate], the “Rescue of Blautia growth from Lacto-conditioned-media-mediated suppression” value (from here on “Rescue of Blautia growth”) in the data set with murine Blautia is “able to support Blautia growth”.

For the compound `OC[C@H]1O[C@H](OC[C@H]2O[C@H](O[C@]3(CO)O[C@H](CO)[C@@H](O)[C@@H]3O)[C@H](O)[C@@H](O)[C@@H]2O)[C@H](O)[C@@H](O)[C@H]1O` [raffinose], in data set [1], the “GVHD severity / survival of mice with GVHD” value is reported as “reduces GVHD severity”. Further, in data set [2] (of the total 17 strains), the “Number of strains whose growth is supported” value came out at 5 strains.

As to `C[C@H](O)[C@H](O)[C@@H](O)[C@@H](O)C=O` [rhamnose], in data set [3], the “Fermentation of sugar by Blautia” value is given as “fermented by Blautia”. Further, in data set [4], the “Fermentation of sugar by Lactobacillus” value was “not by Lactobacillus”.

On to `O=C[C@H](O)[C@@H](O)[C@H](O)CO` [xylose], for which the “Fermentation of sugar by Blautia” value in data set [3] is listed as “fermented by Blautia”. In addition, the “Fermentation of sugar by Lactobacillus” value in data set [4] is “not by Lactobacillus”. The “GVHD severity / survival of mice with GVHD” value in data set [1] is on record as “improved survival; also recorded: reduced GVHD severity”. Further, the “Intestinal abundance of Blautia” value in data set [1] (10 g/L in drinking water from 7 days before BMT, day 14 after BMT, 16S deep sequencing) is recorded as “expansion of Blautia; also recorded: increased abundance”.

Take `C[C@H]1[C@H](NC(=O)/C(=N\OC(C)(C)C(=O)O)c2csc(N)n2)C(=O)N1S(=O)(=O)O` [aztreonam]: the “Abundance of Clostridiales in stool” value in data set [5] was “spared Clostridiales”. The “Change in Clostridiales abundance in stool of patients” value with Clostridiales is “relative preservation of Clostridiales abundances”. For the same compound, the “Bacteria past the colonic epithelial barrier” value in data set [6] is on record as “not seen”.

With `O=C1O[C@H]([C@@H](O)CO)C(O)=C1O` [ascorbic acid], in the data set on murine Blautia, the “Rescue of Blautia growth” value is “able to support Blautia growth”.

Take `O=C[C@H](O)[C@@H](O)[C@H](O[C@@H]1O[C@H](CO)[C@@H](O)[C@H](O)[C@H]1O)[C@H](O)CO` [cellobiose]: the “Number of strains supported that are not supported by raffinose” value in data set [2] is recorded as 4 strains.

`N[C@@H](CS)C(=O)O` [L-cysteine]: the “Rescue of Blautia growth” value in the data set with murine Blautia was “able to support Blautia growth”.

Turning to `CO/N=C(\C(=O)N[C@@H]1C(=O)N2C(C(=O)[O-])=C(C[N+]3(C)CCCC3)CS[C@H]12)c1csc(N)n1` [cefepime], the “Abundance of Clostridiales in stool” value in data set [5] was “spared Clostridiales”.
